# Patent publication US9067974B2, “Polymyxin derivatives and uses thereof” (priority 2006, dated 2015)
# Bridge positions count the residues as written; N and C are the ends. Square brackets hold non-standard residues; d marks the D form. Peptide text beside a SMILES is read from it. * marks the point of attachment. Octanoyl = CCCCCCCC(=O)*; Dab = NCC[C@H](N)C(=O)O; Abu = CC[C@H](N)C(=O)O
# How the values were obtained:
# E. coli IH3080 (K1:O18) [1] = test: Well diffusion growth inhibition on LB agar plates (direct antibacterial activity); format: cell-based, Escherichia coli
# How it was run: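 Growth inhibition of encapsulated E. coli IH3080 (K1:O18) was measured by well diffusion on LB agar plates. A suspension of about 10^8 cells/ml in 0.9% NaCl, made from an overnight LB agar culture, was spread over the plates and the excess removed. Once dry, five 2 mm wells were drilled per plate and test solutions added, with 0.9% NaCl as control. After 18 h at 37° C, inhibition zone diameters were measured and converted to surface areas in square mm.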
# E. coli IH3080 = test: Sensitization to rifampin: well diffusion growth inhibition on LB plates containing rifampin; format: cell-based, Escherichia coli; conditions: 4 μg of compound
# A. baumannii ATCC 19606 = test: as above; format: cell-based, Acinetobacter baumannii; conditions: 4 μg of compound
# [2] = system: Ps. aeruginosa ATCC 27853; test: as above; format: cell-based, Pseudomonas aeruginosa; conditions: 4 μg of compound
# E. coli CCUG41421 = test: E-test MIC of antibiotics on Mueller-Hinton agar with or without NAB7061 (4 μg/ml); sensitization factor = MIC ratio absence/presence; format: cell-based, Escherichia coli
# Experimental: (§1) MICs were determined by using E-strips (Biodisk Ltd., Solna, Sweden) according to the manufacturer's instructions.
# (§2) The strains originated from ATCC (11 strains), CCUG (11 strains), and NCTC (The National Collection of Type Cultures, Colindale, U.K.; 2 strains). Eight strains (the F-strains) were purchased from Mobidiag Ltd., Helsinki, Finland. The source of E. coli IH3080 has been given in Example 2. Sensitization factor was defined as in Example 7.
# E. coli CCUG41422 = test: as above; format: cell-based, Escherichia coli
# Experimental: as §1, §2
# E. coli CCUG41424 = test: as above; format: cell-based, Escherichia coli
# Experimental: as §1, §2
# E. coli CCUG41425 = test: as above; format: cell-based, Escherichia coli
# Experimental: as §1, §2
# E. coli CCUG41427 = test: as above; format: cell-based, Escherichia coli
# Experimental: as §1, §2
# E. coli CCUG41432 = test: as above; format: cell-based, Escherichia coli
# Experimental: as §1, §2
# E. coli NCTC13351 = test: as above; format: cell-based, Escherichia coli
# Experimental: as §1, §2
# S. marcescens ATCC8100 = test: as above; format: cell-based, Serratia marcescens
# Experimental: as §1, §2
# E. coli IH3080 (K1:O18) [3] = test: Experimental E. coli peritonitis model in mice; format: in vivo; conditions: 4.5 h postinfection ([…] after the treatment), 5 mg/kg subcutaneous
# Experimental: A suspension of E. coli IH3080 (K1:O18) in saline (0.9% NaCl) was prepared from an overnight culture on a blood agar plate (Statens Serum Institut, Copenhagen, Denmark). All mice (female NMR1 from Harlan Scandinavia, Allerød, Denmark; weight, 25-30 g) were inoculated intraperitoneally with 0.5 ml of the suspension containing 0.96×10^6 CFU per ml in the lateral lower quadrant of the abdomen. At 1 h, the CFU count was determined from three mice and the remaining mice (four mice per group) were treated with a subcutaneous injection of 0.2 ml of erythromycin solution in saline (corresponding to 5 mg/kg body weight) or NAB7061 solution in saline (corresponding to 5 mg/kg body weight), or both erythromycin and NAB7061 (corresponding to 5 mg/kg body weight of both drugs; given at two separate sites). Control group received two 0.2 ml injections of saline. At 4.5 h postinfection, all mice were anaesthetized with CO2 and sacrificed. Sterile saline (2 ml) was injected intraperitoneally and the abdomen was gently massaged before it was opened and the fluid sampled. Appropriate dilutions of the fluid were plated on blood agar plates, the plates were incubated overnight, and the colonies were counted.
# [4] = system: E. coli (ATCC25922 and IH3080), K. pneumoniae ATCC13883, and E. cloacae ATCC23355; test: E-test sensitization by NAB7061 (4 μg/ml), summary over the tested strains of Table 7; format: cell-based; conditions: range over the tested strains
# Experimental: as §1
# [5] = system: three strains of A. baumannii; test: E-test sensitization by NAB7061 (4 μg/ml), summary over A. baumannii strains; format: cell-based, Acinetobacter baumannii
# Text: as §2
# Strains of K. pneumoniae remained somewhat more resistant to both antibiotics, and the sensitization factors varied between 10 and 500.
smiles,measurement,setting,value
"CCCCCCCC(=O)N[C@H](C(=O)N[C@@H](CC)C(=O)N[C@H]1CCNC(=O)[C@H]([C@@H](C)O)NC(=O)[C@H](CCN)NC(=O)[C@H](CCN)NC(=O)[C@H](CC(C)C)NC(=O)[C@@H](Cc2ccccc2)NC(=O)[C@H](CCN)NC1=O)[C@@H](C)O [NAB 7061, OA-Thr-Abu-cy[Dab-Dab-DPhe-Leu-Dab-Dab-Thr-]] (Octanoyl-T[Abu][Dab][Dab][dF]L[Dab][Dab]T; lactam 3-C)",Antibacterial activity (growth inhibition area around a well),E. coli IH3080 (K1:O18) [1]; 4 μg of compound per well,0 square millimeters
same,Antibacterial activity (growth inhibition area around a well),E. coli IH3080 (K1:O18) [1]; 10 μg of compound per well,50 square millimeters
same,Antibacterial activity in the presence of rifampin (growth inhibition area around a well),E. coli IH3080; rifampin 0 μg/ml,0 square millimeters
same,Antibacterial activity in the presence of rifampin (growth inhibition area around a well),E. coli IH3080; rifampin 0.1 μg/ml,113 square millimeters
same,Antibacterial activity in the presence of rifampin (growth inhibition area around a well),E. coli IH3080; rifampin 1.0 μg/ml,155 square millimeters
same,Antibacterial activity in the presence of rifampin (growth inhibition area around a well),A. baumannii ATCC 19606; rifampin 0 μg/ml,0 square millimeters
same,Antibacterial activity in the presence of rifampin (growth inhibition area around a well),A. baumannii ATCC 19606; rifampin 0.1 μg/ml,28 square millimeters
same,Antibacterial activity in the presence of rifampin (growth inhibition area around a well),A. baumannii ATCC 19606; rifampin 0.3 μg/ml,50 square millimeters
same,Antibacterial activity in the presence of rifampin (growth inhibition area around a well),[2]; rifampin 0 μg/ml,0 square millimeters
same,Antibacterial activity in the presence of rifampin (growth inhibition area around a well),[2]; rifampin 0.1 μg/ml,0 square millimeters
same,Antibacterial activity in the presence of rifampin (growth inhibition area around a well),[2]; rifampin 0.3 μg/ml,0 square millimeters
same,MIC of clarithromycin in the presence of 4 μg/ml of NAB 7061,E. coli CCUG41421,0.125 mg/L
same,MIC of clarithromycin in the presence of 4 μg/ml of NAB 7061,E. coli CCUG41422,0.25 mg/L
same,Sensitization factor to rifampin,E. coli CCUG41422; NAB 7061 4 μg/ml,170-256
same,MIC of clarithromycin in the presence of 4 μg/ml of NAB 7061,E. coli CCUG41424,0.125 mg/L
same,Sensitization factor to rifampin,E. coli CCUG41424; NAB 7061 4 μg/ml,85-94
same,MIC of clarithromycin in the presence of 4 μg/ml of NAB 7061,E. coli CCUG41425,0.047 mg/L
same,MIC of clarithromycin in the presence of 4 μg/ml of NAB 7061,E. coli CCUG41427,0.064 mg/L
same,MIC of rifampin in the presence of 4 μg/ml of NAB 7061,E. coli CCUG41427,0.032 to 0.064 mg/L
same,Sensitization factor to rifampin,E. coli CCUG41427; NAB 7061 4 μg/ml,100-250
same,MIC of clarithromycin in the presence of 4 μg/ml of NAB 7061,E. coli CCUG41432,0.064 mg/L
same,MIC of rifampin in the presence of 4 μg/ml of NAB 7061,E. coli CCUG41432,0.032 mg/L
same,Sensitization factor to rifampin,E. coli CCUG41432; NAB 7061 4 μg/ml,180-250
same,MIC of clarithromycin in the presence of 4 μg/ml of NAB 7061,E. coli NCTC13351,0.032 mg/L
same,MIC of rifampin in the presence of 4 μg/ml of NAB 7061,E. coli NCTC13351,0.032 to 0.047 mg/L
same,Sensitization factor to rifampin,E. coli NCTC13351; NAB 7061 4 μg/ml,340-500
same,MIC of rifampin in the presence of 4 μg/ml of NAB 7061,S. marcescens ATCC8100,16 mg/L
same,CFU counts in peritoneal fluid,E. coli IH3080 (K1:O18) [3],1.1 (±0.6)×10^6 per ml
same,Sensitization factor to azithromycin,[4],31-94
same,Sensitization factor to clarithromycin,[4],63-380
same,Resulting MIC to rifampin in the presence of NAB7061 (4 μg/ml),[5],≤ 0.125 mg/L
